In publication PMC10222858 (Marine Drugs, 2023):
Where a SMILES comes first, the peptide text is derived from it.

What was measured:
[1] = target: rα6/α3β4 nAChRs (Rattus norvegicus, UniProt P04757+P12392+P43143); assay: cell-based; format: cell-based
[2] = target: rα3β4 nAChRs (Rattus norvegicus, UniProt P04757+P12392); assay: cell-based; format: cell-based
rα3β4 nAChRs, sequence (P04757 26-499 limits assumed): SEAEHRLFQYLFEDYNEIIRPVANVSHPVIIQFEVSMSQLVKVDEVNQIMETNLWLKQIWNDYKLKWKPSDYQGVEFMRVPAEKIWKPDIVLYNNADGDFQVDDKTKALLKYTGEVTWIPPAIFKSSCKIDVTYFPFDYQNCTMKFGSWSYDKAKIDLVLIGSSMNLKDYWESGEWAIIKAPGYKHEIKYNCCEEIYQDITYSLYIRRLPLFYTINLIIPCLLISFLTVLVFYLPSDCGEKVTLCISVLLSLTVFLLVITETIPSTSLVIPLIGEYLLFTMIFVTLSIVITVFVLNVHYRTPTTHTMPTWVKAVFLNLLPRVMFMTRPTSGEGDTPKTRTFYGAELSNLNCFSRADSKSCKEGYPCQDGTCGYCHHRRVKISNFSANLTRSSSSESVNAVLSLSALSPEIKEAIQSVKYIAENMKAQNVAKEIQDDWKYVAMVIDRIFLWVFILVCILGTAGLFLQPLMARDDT
rα3β4 nAChRs, sequence (P12392 21-495 limits assumed): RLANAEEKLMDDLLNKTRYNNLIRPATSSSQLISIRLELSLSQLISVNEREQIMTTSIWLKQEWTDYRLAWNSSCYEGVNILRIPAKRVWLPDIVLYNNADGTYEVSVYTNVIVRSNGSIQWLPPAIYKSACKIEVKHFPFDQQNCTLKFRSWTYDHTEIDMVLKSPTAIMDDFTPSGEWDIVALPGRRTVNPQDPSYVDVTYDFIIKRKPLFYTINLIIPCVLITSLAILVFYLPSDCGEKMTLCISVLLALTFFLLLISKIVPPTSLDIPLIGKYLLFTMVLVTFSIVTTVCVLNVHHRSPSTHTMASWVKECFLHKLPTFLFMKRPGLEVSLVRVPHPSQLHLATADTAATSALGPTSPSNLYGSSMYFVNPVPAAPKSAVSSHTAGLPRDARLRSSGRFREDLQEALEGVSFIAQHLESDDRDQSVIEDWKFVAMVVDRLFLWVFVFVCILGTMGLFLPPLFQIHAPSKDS

rα6/α3β4 nAChRs, sequence (P04757 whole entry, looked up): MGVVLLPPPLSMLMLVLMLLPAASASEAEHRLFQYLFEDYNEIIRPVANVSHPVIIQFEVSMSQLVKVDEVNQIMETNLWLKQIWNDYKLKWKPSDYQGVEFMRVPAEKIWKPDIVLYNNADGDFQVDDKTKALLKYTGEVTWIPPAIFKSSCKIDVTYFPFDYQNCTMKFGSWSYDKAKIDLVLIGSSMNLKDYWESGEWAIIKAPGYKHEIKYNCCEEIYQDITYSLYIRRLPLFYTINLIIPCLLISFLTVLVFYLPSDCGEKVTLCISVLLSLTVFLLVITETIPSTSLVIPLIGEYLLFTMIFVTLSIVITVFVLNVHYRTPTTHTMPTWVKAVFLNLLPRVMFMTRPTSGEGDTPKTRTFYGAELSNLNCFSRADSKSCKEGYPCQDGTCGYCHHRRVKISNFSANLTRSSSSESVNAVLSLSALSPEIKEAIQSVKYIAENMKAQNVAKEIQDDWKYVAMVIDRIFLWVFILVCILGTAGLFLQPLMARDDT
rα6/α3β4 nAChRs, sequence (P12392 whole entry, looked up): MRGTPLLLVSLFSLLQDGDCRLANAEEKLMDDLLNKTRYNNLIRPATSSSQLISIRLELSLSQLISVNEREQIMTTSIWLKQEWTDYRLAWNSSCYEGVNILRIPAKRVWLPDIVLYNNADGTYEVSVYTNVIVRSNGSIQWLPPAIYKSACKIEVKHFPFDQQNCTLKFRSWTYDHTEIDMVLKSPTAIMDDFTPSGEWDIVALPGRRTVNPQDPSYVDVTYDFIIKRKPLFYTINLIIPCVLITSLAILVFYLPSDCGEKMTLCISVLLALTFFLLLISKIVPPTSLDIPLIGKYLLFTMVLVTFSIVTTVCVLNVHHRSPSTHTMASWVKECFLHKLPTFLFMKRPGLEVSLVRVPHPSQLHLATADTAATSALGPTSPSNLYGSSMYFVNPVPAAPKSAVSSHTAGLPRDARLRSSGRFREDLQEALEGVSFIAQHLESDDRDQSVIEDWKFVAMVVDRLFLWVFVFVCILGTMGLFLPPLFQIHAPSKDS
rα6/α3β4 nAChRs, sequence (P43143 whole entry, looked up): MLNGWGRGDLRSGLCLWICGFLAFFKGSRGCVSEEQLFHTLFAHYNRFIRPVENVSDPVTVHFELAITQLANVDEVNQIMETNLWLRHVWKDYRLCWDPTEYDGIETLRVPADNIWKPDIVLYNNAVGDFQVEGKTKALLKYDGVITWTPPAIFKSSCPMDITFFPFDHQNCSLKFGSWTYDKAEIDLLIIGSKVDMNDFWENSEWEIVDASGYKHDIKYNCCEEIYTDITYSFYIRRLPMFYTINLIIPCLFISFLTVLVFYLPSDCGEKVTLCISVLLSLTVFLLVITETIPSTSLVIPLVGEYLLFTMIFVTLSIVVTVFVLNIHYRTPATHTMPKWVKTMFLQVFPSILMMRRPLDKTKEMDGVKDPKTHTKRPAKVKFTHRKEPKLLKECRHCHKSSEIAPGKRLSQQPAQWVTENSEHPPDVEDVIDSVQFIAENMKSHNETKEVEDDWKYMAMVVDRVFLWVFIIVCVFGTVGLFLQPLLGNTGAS

In the case of `CC[C@H](C)[C@@H]1NC(=O)[C@H](C)NC(=O)[C@@H]2CCCN2C(=O)[C@H](CO)NC(=O)[C@H](CCSC)NC(=O)[C@H](C)NC(=O)[C@H](CO)NC(=O)[C@@H]2CSSC[C@H](NC(=O)CN)C(=O)N[C@@H](CSSC[C@@H](C(N)=O)NC1=O)C(=O)N[C@@H](CO)C(=O)N[C@@H](Cc1c[nH]cn1)C(=O)N1CCC[C@H]1C(=O)N[C@@H](C(C)C)C(=O)N2` [[+14A]TxID] (HELM PEPTIDE1{G.C.C.S.H.P.V.C.S.A.M.S.P.A.I.C.[am]}$PEPTIDE1,PEPTIDE1,2:R3-8:R3|PEPTIDE1,PEPTIDE1,3:R3-16:R3$$$V2.0), the IC50 [1] is reported as 368 nM and the IC50 [2] is reported as 37 nM.

With `CC[C@H](C)[C@@H]1NC(=O)[C@@H]2CCCN2C(=O)[C@H](CO)NC(=O)[C@H](CCSC)NC(=O)[C@H](C)NC(=O)[C@H](CO)NC(=O)[C@@H]2CSSC[C@H](NC(=O)CN)C(=O)N[C@@H](CSSC[C@@H](C(N)=O)NC(=O)[C@H](C)NC1=O)C(=O)N[C@@H](CO)C(=O)N[C@@H](Cc1c[nH]cn1)C(=O)N1CCC[C@H]1C(=O)N[C@@H](C(C)C)C(=O)N2` [[+15A]TxID] (HELM PEPTIDE1{G.C.C.S.H.P.V.C.S.A.M.S.P.I.A.C.[am]}$PEPTIDE1,PEPTIDE1,2:R3-8:R3|PEPTIDE1,PEPTIDE1,3:R3-16:R3$$$V2.0) the IC50 [1] was 37 nM and the IC50 [2] was 3 nM.

With `CC[C@H](C)[C@@H]1NC(=O)[C@@H]2CCCN2C(=O)[C@H](CO)NC(=O)[C@H](C)NC(=O)[C@H](CCSC)NC(=O)[C@H](C)NC(=O)[C@H](CO)NC(=O)[C@@H]2CSSC[C@H](NC(=O)CN)C(=O)N[C@@H](CSSC[C@@H](C(N)=O)NC1=O)C(=O)N[C@@H](CO)C(=O)N[C@@H](Cc1c[nH]cn1)C(=O)N1CCC[C@H]1C(=O)N[C@@H](C(C)C)C(=O)N2` [[+12A]TxID] (HELM PEPTIDE1{G.C.C.S.H.P.V.C.S.A.M.A.S.P.I.C.[am]}$PEPTIDE1,PEPTIDE1,2:R3-8:R3|PEPTIDE1,PEPTIDE1,3:R3-16:R3$$$V2.0) the IC50 [1] was 34 nM and the IC50 [2] was 49 nM.

Work on `CC[C@H](C)[C@@H]1NC(=O)[C@@H]2CCCN2C(=O)[C@H](C)NC(=O)[C@H](CO)NC(=O)[C@H](CCSC)NC(=O)[C@H](C)NC(=O)[C@H](CO)NC(=O)[C@@H]2CSSC[C@H](NC(=O)CN)C(=O)N[C@@H](CSSC[C@@H](C(N)=O)NC1=O)C(=O)N[C@@H](CO)C(=O)N[C@@H](Cc1c[nH]cn1)C(=O)N1CCC[C@H]1C(=O)N[C@@H](C(C)C)C(=O)N2` [[+13A]TxID] (HELM PEPTIDE1{G.C.C.S.H.P.V.C.S.A.M.S.A.P.I.C.[am]}$PEPTIDE1,PEPTIDE1,2:R3-8:R3|PEPTIDE1,PEPTIDE1,3:R3-16:R3$$$V2.0) yielded an IC50 [1] of 64 nM and an IC50 [2] of 9.9 nM.

For `CC[C@H](C)[C@@H]1NC(=O)[C@@H]2CCCN2C(=O)[C@H](CO)NC(=O)[C@H](CCSC)NC(=O)[C@H](C)NC(=O)[C@H](C)NC(=O)[C@H](CO)NC(=O)[C@@H]2CSSC[C@H](NC(=O)CN)C(=O)N[C@@H](CSSC[C@@H](C(N)=O)NC1=O)C(=O)N[C@@H](CO)C(=O)N[C@@H](Cc1c[nH]cn1)C(=O)N1CCC[C@H]1C(=O)N[C@@H](C(C)C)C(=O)N2` [[+10A]TxID] (HELM PEPTIDE1{G.C.C.S.H.P.V.C.S.A.A.M.S.P.I.C.[am]}$PEPTIDE1,PEPTIDE1,2:R3-8:R3|PEPTIDE1,PEPTIDE1,3:R3-16:R3$$$V2.0), the IC50 [1] was 1130 nM and the IC50 [2] was greater than 10000 nM.

In the case of `CC[C@H](C)[C@@H]1NC(=O)[C@@H]2CCCN2C(=O)[C@H](CO)NC(=O)[C@H](CCSC)NC(=O)[C@H](C)NC(=O)[C@H](CO)NC(=O)[C@H](C)NC(=O)[C@@H]2CSSC[C@H](NC(=O)CN)C(=O)N[C@@H](CSSC[C@@H](C(N)=O)NC1=O)C(=O)N[C@@H](CO)C(=O)N[C@@H](Cc1c[nH]cn1)C(=O)N1CCC[C@H]1C(=O)N[C@@H](C(C)C)C(=O)N2` [[+9A]TxID] (HELM PEPTIDE1{G.C.C.S.H.P.V.C.A.S.A.M.S.P.I.C.[am]}$PEPTIDE1,PEPTIDE1,2:R3-8:R3|PEPTIDE1,PEPTIDE1,3:R3-16:R3$$$V2.0), the IC50 [1] is reported as greater than 10000 nM, the “inhibition of rα6/α3β4 nAChRs in words” value [1] is reported as “no obvious inhibition” and the IC50 [2] is reported as greater than 10000 nM. For the same compound, the “blocking percentage of rα3β4 nAChRs” value [2] was “less than fifty percent”.
